Nine substances from patent US20090186864A1, “RUTHENIUM (II) COMPOUNDS” (priority 2006, published 2009) can be followed below.

Assay [1] has as its system A2780 cancer cell line. The assay is described as follows: Inhibitory growth activity against A2780 cancer cell line (sulforhodamine B assay, Example 11). The assay is classed as cell-based, human. To be noted: 24 hours exposure, 96 hours recovery, 0.5% DMSO. How it is done:
(§1) Other compounds were tested for inhibitory growth activity against the A2780 and A549 cancer cell lines as follows. Each drug was tested for activity at six different concentrations (100 μM, 50 μM, 10 μM, 5 μM, 1 μM and 0.1 μM) and each concentration was tested in triplicate, relative to a cisplatin control.
(§2) The A2780 cancer cell line was maintained by growing the cells in RPMI media supplemented with 5% fetal bovine serum, 1% penicillin/streptomycin and 2 mM L-glutamine. The cells were split when approximately 70-80% confluence were reached using 0.25% trypsin/EDTA. The cells were kept incubated at 37° C., 5% CO2, high humidity. The A549 cancer cell line was maintained by growing the cells in DMEM media supplemented with 10% fetal bovine serum, 1% penicillin/streptomycin and 2 mM L-glutamine. The cells were split when approximately 70-80% confluence were reached using 0.25% trypsin/EDTA. The cells were kept incubated at 37° C., 5% CO2, high humidity.
(§3) A2780 cancer cells were plated out at 5000 cells/well (±10%) on day one. A549 cancer cells were plated out at 2000 cells/well (±10%) on day two. On day three the test compound was dissolved in DMSO to give a stock solution of 20 mM and serial dilutions were carried out in DMSO to give concentrations of drug in DMSO of 10 mM, 2 mM, 1 mM, 0.2 mM and 0.02 mM. These were added to the wells to give the six testing concentrations and a final concentration of DMSO as 0.5% (v/v) with a total volume of drugs and media to be 200 μl. The cells were exposed to the drug for 24 hours then, after drug removal, fresh media was given and the cells were incubated for 96 hours recovery time. The remaining biomass was estimated by the sulforhodamine B assay. The cells were then fixed using 50 μl 50% (w/v) TCA and incubated at 4° C. for one hour. The biomass was stained with 100 μl 0.4% (w/v) sulforhodamine B in 1% acetic acid.
(§4) The dye was solubilised with Tris Buffer and the absorbance was read using a BMG Fluostar microplate reader at 595 nm. A baseline correction at 690 nm was subtracted from the values. The absorbance for 100% cell survival was based on the average absorbance for the 0.1 μM dosed triplicate for that drug. IC50 values were calculated using XL-Fit version 4.0.

The test system of assay [2] is A2780 ovarian cancer cell line. The assay is described as follows: Cytotoxicity against A2780 ovarian cancer cell line (Coulter counter cell count, Example 10). It counts as cell-based, human. To be noted: 24 hours exposure, further 72 h growth, stock solutions in deionised water. The method, then:
Some compounds were tested for cytotoxicity against the A2780 ovarian cancer cell line as follows.
(§5) The human ovarian cells were added at a density of 1×10^4 cells per well to 24-well tissue culture trays (Falcon Plastic, Becton Dickenson, Lincon Park, N.J., USA) and allowed to grow for 72 hours before addition of the Ru(II) arene complexes. Stock solutions of the ruthenium compounds were made up fresh in deionised water and sonicated to ensure complete dissolution. These stock solutions were diluted with media to give final concentrations ranging between 0.1 and 100 μM. All compounds were evaluated at each concentration in duplicate wells, and complete assays were repeated a minimum of three times. Cisplatin or carboplatin was employed as a positive and comparative control in each experiment. After 24 hours exposure the drug-containing medium was removed, the cells washed with phosphate buffered saline (PBS) and fresh medium was added. Cell number was assessed after a further 72 h growth using s Coulter counter (Coulter Electronics Ltd, Luton, UK) and the IC50 values (concentration of drug causing 50% growth inhibition) calculated by linear regression analysis comparing the inhibitory effects of the drugs against the growth of untreated cells.

The test system of assay [3] is A549 cancer cell line. The assay is described as follows: Inhibitory growth activity against A549 cancer cell line (sulforhodamine B assay, Example 11). It counts as cell-based. As to conditions: 24 hours exposure, 96 hours recovery, 0.5% DMSO. How it is done: as §1, §2, §3, §4
For assay [4], the system named is cisplatin resistant cell line (A2780^cis). The assay is described as follows: Cytotoxicity against cisplatin resistant cell line A2780cis (Example 10). The assay is classed as cell-based, human. The method, then: as §5

Usually IC50 stands for the midpoint of a concentration-inhibition curve. Low values mean inhibition by little substance, high ones a need for much substance. In turn, “[(η^6-biph)RuCl(bipy(OH)O^−)] [Compound 8]” showed an IC50 in assay [1] of 40 µM.
“[(η^6-indan)Ru(phenanthroline-N,N)Cl]PF6 [Compound 2]” came in with an IC50 in assay [2] of 52 µM. In other words, the double-digit micromolar range.
The same measure, in the same setting: the value for “[(η-indan)Ru(2,9-Me2-phen-N,N)Cl]PF6 [Compound 3]” was over 50 µM.
For “[(η^6-THA)Ru(bipydiol-N,N—H)Cl] [Compound 4]”, the IC50 in assay [1] is 7.9 µM; in assay [3], 21 µM.
The like results for “[(η^6-DHA)Ru(bipydiol-N,N—H)Cl] [Compound 5]” were, in that order, 16.7 µM and 38.4 µM.
Take “[(η^6-THN)Ru(bipydiol-N,N—H)Cl] [Compound 6]”: the results for the concentration for half-maximal inhibition (IC50) in assay [1] and in assay [3] were 7.3 µM and 23.6 µM, respectively.
Take “[(η^6-indan)RuCl(bipydiol-N,N)Cl] [Compound 1]”: the IC50 turned out to be 3 µM in assay [2], 17.6 µM in assay [1], 2.1 µM in assay [4] (A2780cis cisplatin resistant cell line) and 39 µM in assay [3]. Moreover, in assay [4] (A2780cis versus A2780), the fold resistance was determined as 0.7 fold.
The substance “[(η^6-bz)RuCl(bipy(OH)O^−)] [Compound 7]” registered an IC50 in assay [1] of 65 µM.
For the substance “[(η^6-p-terp)RuCl(bipy(OH)O—)] [Compound 9]”, the IC50 in assay [1] stood at 21 µM; in assay [3], 62 µM.
